Four compounds from EP0498705A1, “Phenol ethers derivatives, their preparation and their therapeutical use” (SYNTHELABO, priority 1991, dated 1992) can be followed below.

Assay [1] relates to Rat amyélé. Briefly: Partial β-agonist activity in vivo: heart rate increase in the pithed rat after cumulative i.v. doses. The note with it: for ED (50 beats per minute increase): iv, dose giving a heart rate increase of 50 beats per minute, pithed rat, i.v., read-out: DE₅₀; for augmentation maximale de fréquence cardiaque (effet agoniste partiel): pithed anaesthetised rat, cumulative i.v. doses. On the procedure: 2. Propriétés β-agonistes partielles des isomères (S)(-) et (R)(+) du cicloprolol.
L'activité β-agoniste partielle des deux énantiomères du cicloprolol, a été étudiée in vivo chez le Rat amyélé. Des rats (Spraque-Dawley; Charles River, France) mâles de 250 g environ sont anesthésiés au pentobarbital sodique (55 mg/kg i.p.), amyélés puis placés sous respiration artificielle. La pression artérielle est captée par voie sanglante au niveau de la carotide et l'onde pulsatile alimente un tachographe gui permet de mesurer la fréquence cardiaque. Les composés sont injectés par voie intraveineuse au niveau de la veine fémorale. Ces rats amyélés présentent une fréquence cardiaque réduite d'environ 30 % par rapport à celle de rats intacts anesthésiés. L'activité agoniste partielle des énantiomères est déterminée par l'injection de doses cumulatives des énantiomères. On détermine la dose permettant une augmentation de la fréquence cardiaque de 50 battements par minute (DE₅₀) ainsi que le maximum de l'effet.

For assay [2], the target named is T1, récepteurs β₁ adrénergiques (Cavia porcellus, UniProt H0W3H1).
T1 construct: L'oreillette droite est séparée du coeur; from tissue; host or cells: isolated right atrium of male guinea pigs
Kind of assay: Blockade of β1 adrenergic receptors in vitro: isoprenaline concentration-effect curves on atrial rate of isolated right atria (Schild analysis). It is filed as cell-based, cobaye. The note with it: for déplacement des courbes concentration-effet à l'isoprénaline: R(+) at 0,3, 1, 3 µM, S(-) at 0,1, 0,3, 1 µM, 30 min before the second curve; for Kb: Schild method, antagonism of isoprenaline on atrial rate, isolated guinea pig right atrium, 32°C, confidence interval in brackets, read-out: pA₂ (converted). From the text:
1. Efficacité des isomères (S)(-) et (R)(+) du cicloprolol en tant que bloquants des récepteurs β₁ adrénergiques dans des conditions in vitro.
Préparation des oreillettes droites.
Des cobayes mâles (race tricolore : élevage LESSIEUX) pesant 200-250 g sont sacrifiés par dislocation cervicale. Les coeurs sont rapidement retirés de la cage thoracique et placés dans une solution de Krebs dans laquelle barbote un mélange de 95 % de O₂ et 5 % de CO₂. La composition de cette solution en mM est : NaCl 118; KCl 4,7; CaCl₂ 2,6; KH₂PO₄ 1,2; MgCl₂ 1,2; NaHCO₃ 25; glucose 11,7; acide ascorbique 1,0. L'oreillette droite est séparée du coeur. Sa base est attachée à un crochet monté sur un support et son apex à un autre petit crochet auquel un fil est accroché. La préparation est transférée dans un bain à organe contenant 20 ml de solution de Krebs oxygénée à 32°C et le fil est connecté à un transducteur de force (Grass, modèle : FTO3C). Une tension de repos de 0,5 g est appliquée à l'oreillette et les signaux de force contractile servent à déclencher un cardiotachomètre pour mesurer le rythme atrial. La force contractile et le rythme atrial sont enregistrés sur un polygraphe.
Après une période de stabilisation de 50 minutes, le tissu est soumis à une concentration de 0,01 µM d'isoprénaline puis est lavé à plusieurs reprises pendant 20 minutes. Immédiatement après, la courbe concentration-effet complète est déterminée en additionnant au bain des concentrations de plus en plus fortes d'isoprénaline (demi-intervalles de l'échelle logarithmique) jusqu'à ce que le rythme atrial ne puisse plus augmenter davantage. Chaque concentration successive d'isoprénaline est ajoutée quand la réponse à la concentration précédente atteint un état stable apparent. A la fin de cette courbe concentration-effet, la préparation est lavée toutes les 10 minutes, pendant 30 minutes, pour lui laisser retrouver son rythme de battement minimal. Puis, une deuxième courbe de réponse aux concentrations est effectuée 30 minutes après avoir soumis la préparation aux différentes concentrations de R(+)-cicloprolol (0,3; 1; et 3 µM) ou de S(-)-cicloprolol (0,1; 0,3 et 1 µM). Les modifications maximales du rythme atrial engendrées par chaque concentration d'isoprénaline sont exprimées en pourcentage par rapport à la réponse émise lors d'une concentration supramaximale d'isoprénaline. Ces valeurs sont utilisées pour construire la courbe concentration-effet dans un repère semi-logarithmique. Il faut noter que si le rythme initial au début de la seconde courbe concentration-effet diffère de celle de la 1ère courbe, la réponse maximale utilisée pour calculer les pourcentages est déterminée par la différence entre le rythme initial de l'oreillette avant l'initiation de la seconde courbe concentration-effet et le rythme atteint par l'oreillette après l'addition de la plus grande concentration d'isoprénaline lors de la première courbe de réponse.
Le logarithme changé de signe de la concentration d'isoprénaline produisant 50 % de l'effet maximal (pD₂) est calculé pour chaque courbe de réponse avant et après chaque concentration de S(-) ou de R(+)-cicloprolol. Les valeurs logarithmiques (concentration ratio-1) sont portées sur l'ordonnée en fonction du logarithme négatif de la concentration d'antagoniste. (Arunlakshana et Schild, Br. J. Pharmacol. 14, 48-54, 1959). […]

Assay [3] is described as follows: Cardiac stimulant activity in man. It counts as in vivo, homme. The note with it: no method or data given.

T1 sequence (H0W3H1 1-470): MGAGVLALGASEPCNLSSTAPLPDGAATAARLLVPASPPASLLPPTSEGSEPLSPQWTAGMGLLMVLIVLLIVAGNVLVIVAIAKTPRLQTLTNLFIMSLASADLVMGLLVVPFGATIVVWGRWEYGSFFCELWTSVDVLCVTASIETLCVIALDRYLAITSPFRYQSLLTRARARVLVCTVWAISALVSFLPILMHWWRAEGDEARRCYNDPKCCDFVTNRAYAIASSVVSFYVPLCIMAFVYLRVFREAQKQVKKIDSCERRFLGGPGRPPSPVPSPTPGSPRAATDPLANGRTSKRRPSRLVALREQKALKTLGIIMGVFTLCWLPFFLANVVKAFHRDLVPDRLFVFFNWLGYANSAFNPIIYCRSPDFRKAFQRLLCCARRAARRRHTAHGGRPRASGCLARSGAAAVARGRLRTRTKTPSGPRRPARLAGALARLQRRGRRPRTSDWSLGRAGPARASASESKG

For the compound `CC(C)NC[C@@H](O)COc1ccc(OCCOCC2CC2)cc1` [(R)(+)-cicloprolol, (R)-(+)-1-[4-[2(cyclopropylméthoxy)éthoxy]phénoxy]-3-[(1-méthyléthyl)amino]propan-2-ol], in assay [1], the ED (50 beats per minute increase) worked out at 122 ± 2 µg/kg and the “augmentation maximale de fréquence cardiaque (effet agoniste partiel)” value turned out to be 113 ± 5 bat/min. Moreover, in assay [2], the “déplacement des courbes concentration-effet à l'isoprénaline” value was “déplacent vers la droite les courbes concentration-effet à l'isoprénaline de façon parallèle et sans changer la réponse maximale” and the Kb is 0.24 µM.

For `CC(C)NC[C@H](O)COc1ccc(OCCOCC2CC2)cc1` [(S)(-)-cicloprolol, (S)-(-)-1-[4-[2-(cyclopropylméthoxy)éthoxy]phénoxy]-3-[(1-méthyléthyl)amino]propan-2-ol], in assay [1], the ED (50 beats per minute increase) amounted to 4.6 ± 0.1 µg/kg and the “augmentation maximale de fréquence cardiaque (effet agoniste partiel)” value is given as 107 ± 3 bat/min. In addition, in assay [2], the “déplacement des courbes concentration-effet à l'isoprénaline” value is “déplacent vers la droite les courbes concentration-effet à l'isoprénaline de façon parallèle et sans changer la réponse maximale” and the Kb is 0.0363 µM. The “fois plus puissant que le (R)(+)-cicloprolol, comme antagoniste des récepteurs β₁ adrénergiques” value in assay [2] (antilog(7,44 - 6,62), ratio of the pA₂ values) was 6,6 fois.

As to `CC(C)NCC(O)c1ccc(O)c(O)c1` (stereo not drawn) [isoprénaline, reference compound], in assay [1], the ED (50 beats per minute increase) was 0.02 µg/kg and the “augmentation maximale de fréquence cardiaque (effet agoniste partiel)” value was around 140 bat/min.

For the compound `CC(C)NCC(O)COc1ccc(OCCOCC2CC2)cc1` (stereo not drawn) [cicloprolol, 1-[4-[2-(cyclopropylméthoxy)éthoxy]phénoxy]-3-[(1-méthyléthyl)amino]propan-2-ol], the activité stimulante cardiaque entry in assay [3] is “a été confirmée chez l'homme”.
